Laboratory results as given in ChEMBL document CHEMBL6096670, “Design, synthesis and biological evaluation of novel β-carbolines as antitumor agents via targeting autophagy in colorectal cancer” (Eur J Med Chem, 2025).
The source made the active and inactive calls. The rule behind the calls is not given here.

How the values were obtained:
HCT-116 [1] = assay: Induction of apoptosis in human HCT-116 assessed as early apoptotic cells at 1 uM pretreated with Z-VAD-FMK for 30 mins followed by compound addition and measured after 24 hrs by Annexin V-FITC/PI double staining based flow cytometry (reference value: 0.95%); format: functional
HCT-116 [2] = assay: Induction of apoptosis in human HCT-116 assessed as late apoptotic cells at 1 uM incubated for 24 hrs Annexin V FITC/PI double staining based flow cytometry (reference value: 8.02 %); format: functional
HCT-116 [3] = assay: Inhibition of cell migration in human HCT-116 cells at 1 to 2 uM incubated for 24 hrs by cell scratch assay; format: functional, cell-based; conditions: dose 1-2 µM
HCT-116 [4] = assay: Effect on cleaved caspase 3 expression level in Bax knockout human HCT-116 cells at 1 to 2 uM incubated for 24 hrs by Western blot analysis; format: functional, cell-based; conditions: dose 1-2 µM
HCT-116 [5] = assay: Induction of apoptosis in human HCT-116 assessed as early apoptotic cells at 1 uM incubated for 24 hrs Annexin V FITC/PI double staining based flow cytometry (reference value: 1.07 %); format: functional
HCT-116 [6] = assay: Inhibition of colony formation in human HCT-116 cells assessed as reduction in number of colonies at 0.5 to 2 uM measured after 24 hrs by crystal violet staining based analysis; format: functional, cell-based; conditions: dose 0.5-2 µM
[7] = Toxicity in female BALB/c mouse implanted with mouse CT26 cells assessed as change in liver morphology at 1 to 2 mg/kg administrated once every 3 days for 18 days by H&E staining based analysis; format: organism-based; conditions: in vivo, 432 h, dose 1-2 mg/kg, time 18 day
HCT-116 [8] = assay: Induction of apoptosis in human HCT-116 assessed as early apoptotic cells at 2 uM pretreated with Z-VAD-FMK for 30 mins followed by compound addition and measured after 24 hrs by Annexin V-FITC/PI double staining based flow cytometry (reference value: 0.95%); format: functional
CT26 [9] = assay: Antitumor activity against mouse CT26 cells implanted in female BALB/c mouse assessed as reduction in tumor volume at 2 mg/kg administrated once every 3 days for 18 days; format: functional, organism-based; conditions: time 18.0 day
HCT-116 [10] = assay: Induction of apoptosis in human HCT-116 cells assessed as effect on cleaved caspase-3 expression level at 0.5 to 2 uM incubated for 24 hrs by Western blot analysis; format: functional, cell-based; conditions: dose 0.5-2 µM
HCT-116 [11] = assay: Induction of apoptosis in human HCT-116 assessed as late apoptotic cells at 1 uM pretreated with Z-VAD-FMK for 30 mins followed by compound addition and measured after 24 hrs by Annexin V-FITC/PI double staining based flow cytometry (reference value: 7.43 %); format: functional
HCT-116 [12] = assay: Induction of morphological changes in human HCT-116 cells assessed as appearance of inflated cell shape at 0.5 to 2 uM by microscopic analysis; format: functional, cell-based; conditions: dose 0.5-2 µM
SK-OV-3 = assay: Antiproliferative activity against human SK-OV-3 cells assessed as inhibition of cell growth incubated for 48 hrs by MTT assay; format: functional, cell-based; conditions: SK-OV-3, 48 h
HCT-116 [13] = assay: Inhibition of colony formation in wildtype human HCT-116 cells assessed as reduction in number of colonies at 1 to 4 uM measured after 24 hrs by crystal violet staining based analysis; format: functional, cell-based; conditions: dose 1-4 µM
HCT-116 [14] = assay: Antiproliferative activity against ATG5 knockout human HCT-116 cells assessed as inhibition of cell viability incubated for 24 hrs by CCK8 assay; format: functional, cell-based; conditions: HCT-116, 24 h
HCT-116 [15] = assay: Induction of autophagy in human HCT-116 cells transfected with mRFP-GFP-LC3B assessed as autophagolysosome formation by measuring decrease in GFP fluorescence at 0.5 to 2 uM incubated for 24 hrs by DAPI staining based fluorescence confocal microscopic analysis; format: functional, cell-based; conditions: dose 0.5-2 µM
[16] = Toxicity in female BALB/c mouse implanted with mouse CT26 cells assessed as change in heart morphology at 1 to 2 mg/kg administrated once every 3 days for 18 days by H&E staining based analysis; format: organism-based; conditions: in vivo, 432 h, dose 1-2 mg/kg, time 18 day
HCT-116 [17] = assay: Induction of autophagy in human HCT-116 cells transfected with mRFP-GFP-LC3B assessed as autophagolysosome formation by measuring increase in mRFP to GFP fluorescence ratio at 0.5 to 2 uM incubated for 24 hrs by DAPI staining based fluorescence confocal microscopic analysis; format: functional, cell-based; conditions: dose 0.5-2 µM
HCT-116 [18] = assay: Induction of autophagy in ATG7 knockout human HCT-116 cells assessed as increase in LC3-II expression at 1 to 2 uM incubated for 24 hrs by Western blot analysis; format: functional, cell-based; conditions: dose 1-2 µM
CT26 [19] = assay: Antitumor activity against mouse CT26 cells implanted in female BALB/c mouse assessed as reduction in tumor weight at 1 mg/kg administrated once every 3 days for 18 days relative to control; format: functional; set-up: scale not given: the % may be the effect or the level left; conditions: time 18 day
HT-29 = assay: Antiproliferative activity against human HT-29 cells assessed as inhibition of cell growth incubated for 48 hrs by MTT assay; format: functional, cell-based; conditions: HT-29, 48 h
[20] = Toxicity in female BALB/c mouse implanted with mouse CT26 cells assessed as change in kidney morphology at 1 to 2 mg/kg administrated once every 3 days for 18 days by H&E staining based analysis; format: organism-based; conditions: in vivo, 432 h, dose 1-2 mg/kg, time 18 day
HCT-116 [21] = assay: Induction of autophagy in human HCT-116 cells transfected with mRFP-GFP-LC3B assessed as appearance of RFP aggregate clusters in cytoplasm at 0.5 to 2 uM incubated for 24 hrs by DAPI staining based fluorescence confocal microscopic analysis; format: functional, cell-based; conditions: dose 0.5-2 µM
HCT-116 [22] = assay: Induction of apoptosis in human HCT-116 assessed as viable cells at 2 uM incubated for 24 hrs Annexin V FITC/PI double staining based flow cytometry (Rvb =90.0%); format: functional; conditions: read-out: Activity
HCT-116 [23] = assay: Induction of apoptosis in human HCT-116 assessed as viable cells at 1 uM pretreated with Z-VAD-FMK for 30 mins followed by compound addition and measured after 24 hrs by Annexin V-FITC/PI double staining based flow cytometry (reference value: 90.8%); format: functional; conditions: read-out: Activity
HCT-116 [24] = assay: Induction of apoptosis in human HCT-116 assessed as necrotic cells at 2 uM pretreated with Z-VAD-FMK for 30 mins followed by compound addition and measured after 24 hrs by Annexin V-FITC/PI double staining based flow cytometry (reference value: 0.84%); format: functional
HCT-116 [25] = assay: Induction of morphological changes in human HCT-116 cells assessed as decrease in adherence to culture dish at 0.5 to 2 uM by microscopic analysis; format: functional, cell-based; conditions: dose 0.5-2 µM
HCT-116 [26] = assay: Effect on cleaved caspase 3 expression level in p53 knockout human HCT-116 cells at 1 to 2 uM incubated for 24 hrs by Western blot analysis; format: functional, cell-based; conditions: dose 1-2 µM
HCT-116 [27] = assay: Effect on apoptosis pathway related genes expression in human HCT-116 cells at 1 uM incubated for 24 hrs by GSVA enrichment analysis; format: functional, cell-based
HCT-116 [28] = assay: Induction of autophagy in human HCT-116 cells transfected with tandem mRFP-GFP-LC3 plasmid assessed as increase in LC3-II accumulation incubated for 24 hrs by Western blot analysis; format: functional, cell-based; conditions: dose 0.5-20 µM
HCT-116 [29] = assay: Inhibition of colony formation in ATG7 knockout human HCT-116 cells assessed as reduction in number of colonies at 1 to 4 uM measured after 24 hrs by crystal violet staining based analysis; format: functional, cell-based; conditions: dose 1-4 µM
[30] = Toxicity in female BALB/c mouse implanted with mouse CT26 cells assessed as change in spleen morphology at 1 to 2 mg/kg administrated once every 3 days for 18 days by H&E staining based analysis; format: organism-based; conditions: in vivo, 432 h, dose 1-2 mg/kg, time 18 day

With `CCN(CC)CCCNCc1cc2c3ccccc3n(CCCc3ccccc3)c2c(CNCCCN(CC)CC)n1` the Activity (HCT-116 [1]) was 1.75%, the Activity (HCT-116 [2]) was 11.2% and the inhibition (HCT-116 [3]) was “Active”. The Activity (HCT-116 [4]) was “inactive”, the Activity (HCT-116 [5]) was 2.19% and the inhibition (HCT-116 [6]) was “Active”. For the same compound, the Activity [7] was “Non-toxic”, the Activity (HCT-116 [8]) was 2.28% and the Activity (CT26 [9]) was “Active; Stronger Than 4Mg/Kg Of Cisplatin Treatment Group”. The Activity (HCT-116 [10]) was “inactive”, the Activity (HCT-116 [11]) was 12.4% and the Activity (HCT-116 [12]) was “Active”. The IC50 (SK-OV-3) was 4.26 µM, the inhibition (HCT-116 [13]) was “Active” and the IC50 (HCT-116 [14]) was 6.62 µM. The Activity (HCT-116 [15]) was “Active”, the Activity [16] was “Non-toxic” and the Activity (HCT-116 [17]) was “Active”. For the same compound, the Activity (HCT-116 [18]) was “inactive”, the Activity (CT26 [19]) was 56.5% and the IC50 (HT-29) was 2650 nM. The Activity [20] was “Non-toxic”, the Activity (HCT-116 [21]) was “Active” and the viability at 2 µM (HCT-116 [22]) was 80.5%. For the same compound, the viability at 1 µM (HCT-116 [23]) was 83.7%, the Activity (HCT-116 [24]) was 1.8% and the Activity (HCT-116 [25]) was “Active”. The Activity (HCT-116 [26]) was “inactive”, the Activity (HCT-116 [27]) was “inactive” and the Activity (HCT-116 [28]) was “Dose-dependent-effect; Transformation Of Lc3-I To Lc3-Ii Observed”. For the same compound, the inhibition (HCT-116 [29]) was “Active; Insignificant Decrease In Number Of Colonies Observed” and the Activity [30] was “Non-toxic”.
